In assay [1] the test system is Clonic Seizures Caused by Pentylenetetrazole in Rats. The experiment in a line: Protection against clonic seizures caused by pentylenetetrazole in rats. It counts as in vivo. The following applies: Rattus norvegicus; dose 25.0 mg/kg, oral or i.p.; pentylenetetrazole 23 mg/kg i.v. at 30 or 60 min; read-out: % of Rats Protected. The procedure, abridged:
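Rats (at least 4 per group) given single or graded oral or intraperitoneal doses in starch/PEG/Polysorbate 80 vehicle. After 30 or 60 min, pentylenetetrazole 23 mg/kg i.v. was given, a dose expected to induce clonic seizures in 99% of unprotected rats. Protection from convulsions was scored.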

Assay [2] has as its system Nonconditioned Passive Avoidance in Rats. Put plainly: Nonconditioned passive avoidance (conflict) test in rats. The following applies: oral or i.p. The class given is in vivo, rat (Wistar). More on the design: key: Active: considered active if the number of shocks received by the test group is significantly higher than the control group by the Mann-Witney U test. The procedure: Another test which has been used to assess anti-anxiety effects is a nonconditioned passive avoidance procedure described by [J. R. Vogel, B. Beer and D. E. Clody, "A Simple and Reliable Conflict Procedure for Testing Anti-Anxiety Agents", Psychopharmacologia, 21, 1-7 (1971)]. A conflict situation is induced in rats by a modification of this method.
Groups of 6 naive, Wistar strain rats, weighing 200-240 g each were deprived of water for 48 hours and food for 24 hours. The test compounds were administered in single or graded, oral or intraperitoneal doses, suspended in a 2% starch vehicle containing 0.5% v/v polyethylene glycol and one drop of polysorbate 80. Control animals received the vehicle alone. At 30 to 60 minutes each rat was placed in an individual plexiglass chamber. Water was available ad libitum from a tap located in the rear of the chamber. A 0.7 milliampere DC shocking current was established between the stainless steel grid floor and the tap. After 20 licks of non-shocked drinking, a shock was delivered for 2 seconds and then further shocks were delivered on a ratio of one shock for 2 seconds for every 20 licks. This was continued for a total of 3 minutes. The number of shocks taken by each rat during the 3 minute interval was recorded and compared to a control group. […]

The test system of assay [3] is Brain-Specific Receptors of Rats. The experiment in a line: Inhibition of the binding of 3H-benzodiazepine to brain-specific receptors of rats. More on the design: species or system rat (Wistar). The note with it: 3H-diazepam 1.5 nM or 3H-flunitrazepam 1.0 nM; rat cortex P2 fraction; test concentration not given.
For assay [4], the system named is Ability of Rats to Remain on an Inclined Screen. Put plainly: Effect on ability of rats to remain on an inclined screen. It counts as in vivo. The following applies: Rattus norvegicus, 65 min; dose necessary to cause 50% of animals to fall off; oral; 60° screen, 65 min after dosing. The procedure: The first test measures the effect of representative compounds on the ability of rats to remain on an inclined screen. Groups of at least 6 rats were treated orally with graded doses of test compounds or vehicle and placed on a wire mesh screen (inclined at an angle of 60° from a horizontal level) 65 minutes later. The number of rats falling off the screen within 30 minutes was recorded. The ED50 (dose necessary to cause 50% of the animals tested to fall off) was calculated according to the linear arc-sine transformation method of Finney, D. J. Statistical Methods in Biological Assay, 2nd Ed., Hafner, N. Y., 1964, pp. 454 ff. Compounds were dissolved or suspended in a 2% aqueous starch suspension containing 5% polyethylene glycol 400 and a drop of polysorbate 80, and administered in a constant volume of 5 ml/kg.

Assay [5] concerns Locomotor Activity in Rats. Put plainly: Effects on locomotor activity in rats. It counts as in vivo. The note with it: Rattus norvegicus, 1 h; dose causing 50% decrease in mean activity counts vs vehicle; oral, 60 min; read-out: MDD50. As to the method:
Groups of 6 rats were treated orally with vehicle (5 ml/kg) or graded doses of the test compounds. Sixty minutes later, individual rats were placed in Actophotometers and locomotor activity was measured for 5 minutes after a brief (30 sec.) habituation period. Motor Activity Counts (number of crossings of the photo cells) were recorded for each rat, and mean activity counts were calculated for each treatment group. The dose causing a 50% decrease in mean activity counts compared with the vehicle group (MDD50) was calculated from a linear regression equation.

In assay [6] the test system is Ethanol Induced Narcosis in Rats. The experiment in a line: Effects on the duration of ethanol induced narcosis in rats. The class given is in vivo. The following applies: Rattus norvegicus; lowest dose causing significant (p≤0.05) increase in duration of narcosis; oral, 60 min before 3.2 g/kg i.p. ethanol; read-out: MED. The procedure: The sedative-hypnotic properties of the novel compounds of the instant invention have been established by their effect on the duration of ethanol induced narcosis in rats as a measurement of sedation. Groups of at least 8 rats were administered graded oral doses of the test compounds or vehicle 60 minutes prior to intraperitoneal treatment with 3.2 g/kg ethanol. Rats were then observed continuously for 180 minutes for the incidence and duration of ethanol induced narcosis. […] The duration of narcosis was the total time the rat remained in a supine position. The MED [lowest dose necessary to cause a significant (p≤0.05, two-tailed Student's t test) increase in the duration of ethanol induced narcosis in rats] of representative compounds of this invention are shown in Table IV. Test compounds were dissolved or suspended in a 2% aqueous starch suspension containing 5% polyethyleneglycol 400 and a drop of Tween®80; ethanol (95%) was adjusted to final concentration (V:V) with 0.85% saline. All treatments were administered in a constant volume of 5 ml/kg.

One may read the % Inhibition as how much of the control response was suppressed.

As for `O=C(c1ccccc1)c1cnn2c(-c3cccc(C(F)(F)F)c3)ccnc12` [phenyl[7-[3-(trifluoromethyl)phenyl]pyrazolo[1,5-a]pyrimidin-3-yl]methanone], the responders at 25 mg/kg in assay [1] was found to be 100%. Also, the “Result (nonconditioned passive avoidance)” value (shortened to “Result”) in assay [2] (dose 25.0 mg/kg) was “Active”. In addition, the “% Inhibition” value in assay [3] is recorded as 93%. The ED50 in assay [4] and in assay [5] was 5.5 mg/kg throughout.

`O=C(c1ccco1)c1cnn2c(-c3cccnc3)ccnc12` [2-Furanyl[7-(3-pyridinyl)pyrazolo[1,5-a]pyrimidin-3-yl]methanone]: in assay [1], the responders at 25 mg/kg is 100%. Also, the “Result” value in assay [2] (dose 25.0 mg/kg) is “Active”. Further, the “% Inhibition” value in assay [3] is reported as 72%. The minimal effective dose in assay [6] turned out to be 32 mg/kg. The ED50 in assay [4] was found to be 167 mg/kg; in assay [5], 500 mg/kg.

Turning to `O=C(c1ccccc1)c1cnn2c(-c3cccnc3)ccnc12` [Phenyl[7-(3-pyridinyl)pyrazolo[1,5-a]pyrimidin-3-yl]methanone], the responders at 25 mg/kg in assay [1] was determined as 100%. In addition, the “Result” value in assay [2] (dose 25.0 mg/kg) is “Active”. The “% Inhibition” value in assay [3] turned out to be 45%. The minimal effective dose in assay [6] was found to be 16 mg/kg. The ED50 came out at 68.5 mg/kg in assay [4] and 51.4 mg/kg in assay [5].

As for `O=C(c1ccccc1Cl)c1cnn2c(-c3cccnc3)ccnc12` [(2-chlorophenyl)[7-(3-pyridinyl)pyrazolo[1,5-a]pyrimidin-3-yl]methanone], in assay [1], the responders at 25 mg/kg amounted to 100%. In assay [2] (dose 25.0 mg/kg), the “Result” value is listed as “Active”. Also, the “% Inhibition” value in assay [3] is reported as 24%. For the same compound, the minimal effective dose in assay [6] came out at 4 mg/kg.

In the case of `O=C(c1ccccn1)c1cnn2c(-c3cccc(C(F)(F)F)c3)ccnc12` [2-pyridinyl[7-[3-(trifluoromethyl)phenyl]pyrazolo[1,5-a]pyrimidin-3-yl]methanone], the responders at 25 mg/kg in assay [1] came to 100%. Further, the “Result” value in assay [2] (dose 25.0 mg/kg) is recorded as “Active”. Also, the “% Inhibition” value in assay [3] was found to be 93%. In addition, the ED50 in assay [4] is 6.9 mg/kg; in assay [5] it was 7 mg/kg.

With `O=C(c1ccc(F)cc1)c1cnn2c(-c3ccncc3)ccnc12` [(4-Fluorophenyl)[7-(4-pyridinyl)pyrazolo[1,5-a]pyrimidin-3-yl]methanone], the responders at 25 mg/kg in assay [1] came out at 100%. In addition, the “Result” value in assay [2] (dose 25.0 mg/kg) is given as “Active”. Further, the minimal effective dose in assay [6] amounted to 6 mg/kg. The ED50 in assay [4] amounted to 98 mg/kg; in assay [5] it was 48.9 mg/kg.

Turning to `Cc1ccc(C(=O)c2cnn3c(-c4cccnc4)ccnc23)cc1` [(4-Methylphenyl)[7-(3-pyridinyl)pyrazolo[1,5-a]pyrimidin-3-yl]methanone], in assay [1], the responders at 25 mg/kg came out at 100%. Moreover, the “Result” value in assay [2] (dose 25.0 mg/kg) is given as “Active”. The “% Inhibition” value in assay [3] was 56%. For the same compound, the ED50 in assay [4] amounted to 11.1 mg/kg; in assay [5], 13.2 mg/kg.

For the compound `COc1ccc(C(=O)c2cnn3c(-c4cccnc4)ccnc23)cc1` [(4-Methoxyphenyl)[7-(3-pyridinyl)pyrazolo[1,5-a]pyrimidin-3-yl]methanone], the responders at 25 mg/kg in assay [1] was 100%. Further, the “Result” value in assay [2] (dose 12.5 mg/kg) was “Active”. The ED50 in assay [4] turned out to be 11.9 mg/kg; in assay [5], 10.5 mg/kg.

Take `O=C(c1ccco1)c1cnn2c(-c3cccc(C(F)(F)F)c3)ccnc12` [2-furanyl[7-[3-(trifluoromethyl)phenyl]pyrazolo[1,5-a]pyrimidin-3-yl]methanone]: the responders at 25 mg/kg in assay [1] is 100%. Besides, the “Result” value in assay [2] (dose 25.0 mg/kg) is reported as “Active”. Moreover, the “% Inhibition” value in assay [3] was found to be 98%. In addition, the minimal effective dose in assay [6] turned out to be 32 mg/kg.

Turning to `O=C(c1ccccc1)c1cnn2c(-c3ccncc3)ccnc12` [phenyl[7-(4-pyridinyl)pyrazolo[1,5-a]pyrimidin-3-yl]methanone], the responders at 25 mg/kg in assay [1] came out at 100%. Further, the “Result” value in assay [2] (dose 25.0 mg/kg) is given as “Active”. For the same compound, the minimal effective dose in assay [6] was 8 mg/kg. Moreover, the ED50 in assay [4] is 9.9 mg/kg; in assay [5] it was 21.2 mg/kg.

The values above are taken from US4521422A, “Aryl and heteroaryl[7-(aryl and heteroaryl)pyrazolo[1,5-a]pyrimidin-3-yl]methanones” (American Cyanamid Company, priority 1984, dated 1985).
